# What was measured:
# [1] = test system: TRZAWR (Wheat, Winter, cv Riband); experiment: Postemergence herbicidal evaluation; format: in vivo, Triticum aestivum; conditions: for TRZAWR herbicidal rating: postemergence
# Procedure, shortened: (§1)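 First, seedlings were raised for around two weeks. Next, test material in 50/50 acetone/water containing 0.5% TWEEN 20 was sprayed through a nozzle at 40 psi, equivalent to about 0.0156–0.500 kg/ha. Finally, after 4–5 weeks in the greenhouse, plants were rated 0–9.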
# [2] = test system: CHEAL (Lambsquarters, Common); experiment: Preemergence herbicidal evaluation; format: in vivo, Chenopodium album; conditions: rated 4-5 weeks after treatment
# Procedure, shortened: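 Steps: mix seeds into potting soil; plant atop ~1 inch soil; spray compound in aqueous acetone (~0.0156-0.500 kg/ha equivalent); maintain in greenhouse with watering; rate visually 0-9 versus control at 4-5 weeks.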
# [3] = test system: SAGPY (Arrowhead (Pygmaea)); experiment: Postemergence weed control under flooded paddy conditions; format: in vivo, Sagittaria pygmaea; conditions: postemergence weeds
# Procedure, shortened: (§2)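 Injury ratings (0–9 scale covering stand, vigor, malformation, size, chlorosis and overall appearance versus control) were made three to four weeks after treatment. Test material, about 0.0313 to 0.500 kg/ha a.i. in 50/50 v/v aqueous/acetone, was added to flood water 1.5 to 3 cm deep over 3 to 5 cm weeds and 1.5 to 2.5 leaf rice.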
# [4] = test system: MOOVA (Monochoria); experiment: as above; format: in vivo, Monochoria vaginalis; conditions: postemergence weeds
# Procedure, shortened: as §2
# [5] = test system: AMBEL (Ragweed, Common); experiment: Postemergence herbicidal evaluation; format: in vivo, Ambrosia artemisifolia; conditions: for AMBEL herbicidal rating: postemergence
# Procedure, shortened: as §1
# [6] = test system: GALAP (Galium); experiment: Postemergence herbicidal evaluation; format: in vivo, Galium aparine; conditions: for GALAP herbicidal rating: postemergence
# Procedure, shortened: as §1
# [7] = rate 0.0313 kg/ha, 3-4 weeks after treatment
# [8] = rate 0.0625 kg/ha, 3-4 weeks after treatment
# [9] = rate 0.1250 kg/ha, 3-4 weeks after treatment
# [10] = rate 0.2500 kg/ha, 3-4 weeks after treatment
# [11] = rate 0.0825 kg/ha, 3-4 weeks after treatment
# [12] = Rate 0.0313 kg/ha, rated 3 to 4 weeks after treatment
# [13] = Rate 0.0625 kg/ha, rated 3 to 4 weeks after treatment
# [14] = Rate 0.1250 kg/ha, rated 3 to 4 weeks after treatment
# [15] = Rate 0.2500 kg/ha, rated 3 to 4 weeks after treatment
Compound,Postemergence herbicidal rating TRZAWR ([1]; Rate 0.0158 kg/ha),Postemergence herbicidal rating TRZAWR ([1]; Rate 0.0315 kg/ha),Postemergence herbicidal rating TRZAWR ([1]; Rate 0.0630 kg/ha),Preemergence herbicidal rating CHEAL ([2]; rate 0.0156 kg/ha),Preemergence herbicidal rating CHEAL ([2]; rate 0.0313 kg/ha),Preemergence herbicidal rating CHEAL ([2]; rate 0.0625 kg/ha),Preemergence herbicidal rating CHEAL ([2]; rate 0.1250 kg/ha),Preemergence herbicidal rating CHEAL ([2]; rate 0.2500 kg/ha),"Herbicidal rating SAGPY [3, 7]","Herbicidal rating SAGPY [3, 8]","Herbicidal rating SAGPY [3, 9]","Herbicidal rating SAGPY [3, 10]","Herbicidal rating MOOVA [4, 7]","Herbicidal rating MOOVA [4, 8]","Herbicidal rating MOOVA [4, 9]","Herbicidal rating MOOVA [4, 10]",Postemergence herbicidal rating AMBEL ([5]; Rate 0.0158 kg/ha),Postemergence herbicidal rating AMBEL ([5]; Rate 0.0315 kg/ha),Postemergence herbicidal rating AMBEL ([5]; Rate 0.0630 kg/ha),Postemergence herbicidal rating GALAP ([6]; Rate 0.0158 kg/ha),further results
"Cn1c(C(F)(F)F)cc(=O)n(-c2cc(N=C3NC(=O)CS3)c(Cl)cc2F)c1=O [Compound 39, 3-{4-Chloro-2-fluoro-5-[(4-oxo-2-thiazolidinylidene)amino]phenyl}-1-methyl-6-(trifluoromethyl)-2,4(1H,3H)-pyrimidinedione]",2.0,1.5,2.5,1.0,0.0,7.0,7.0,9.0,0.0,0.0,0.0,4.0,9.0,9.0,9.0,9.0,0.0,3.0,7.0,0.0,Postemergence herbicidal rating GALAP ([6]; Rate 0.0315 kg/ha): 0.0; Postemergence herbicidal rating GALAP ([6]; Rate 0.0630 kg/ha): 0.0
"Cn1c(C(F)(F)F)cc(=O)n(-c2cc(N=C3SCC(=O)N3CC(=O)OC(C)(C)C)c(Cl)cc2F)c1=O [Compound 43, tert-Butyl 2-{{2-chloro-5-[3,6-dihydro-3-methyl-2,6-dioxo-4-(trifluoromethyl)-1(2H)-pyrimidinyl]-4-fluorophenyl}imino}-4-oxo-3-thiazolidineacetate]",3.0,3.5,4.0,9.0,9.0,9.0,9.0,9.0,7.0,,7.0,9.0,9.0,,9.0,9.0,9.0,9.0,9.0,0.0,"Herbicidal rating SAGPY [3, 11]: 7.0; Herbicidal rating MOOVA [4, 11]: 9.0; Postemergence herbicidal rating GALAP ([6]; Rate 0.0315 kg/ha): 4.0; Postemergence herbicidal rating GALAP ([6]; Rate 0.0630 kg/ha): 4.0"
"CCOC(=O)CN1C(=O)CS(=O)(=O)C1=Nc1cc(-n2c(=O)cc(C(F)(F)F)n(C)c2=O)c(F)cc1Cl [Compound 46, 2-{{2-Chloro-5-[3,6-dihydro-3-methyl-2,6-dioxo-4-(trifluoromethyl)-1(2H)-pyrimidinyl]-4-fluoro-phenyl}imino}-4-oxo-3-thiazolidineacetic acid, ethyl ester, 1,1-dioxide]",,,,,,,9.0,9.0,0.0,0.0,0.0,3.0,3.0,4.0,6.0,7.0,,,,,Postemergence herbicidal rating TRZAWR ([1]; Rate 0.0313 kg/ha): 2.0; Postemergence herbicidal rating TRZAWR ([1]; Rate 0.0625 kg/ha): 3.0; Postemergence herbicidal rating AMBEL ([5]; Rate 0.0313 kg/ha): 0.0; Postemergence herbicidal rating AMBEL ([5]; Rate 0.0625 kg/ha): 5.0; Postemergence herbicidal rating GALAP ([6]; Rate 0.0313 kg/ha): 0.0; Postemergence herbicidal rating GALAP ([6]; Rate 0.0625 kg/ha): 0.0
"CCOC(=O)CN1C(=O)C(CCO)S/C1=N/c1cc(-n2c(=O)cc(C(F)(F)F)n(C)c2=O)c(F)cc1Cl (centres unmarked) [Compound 49, Ethyl 2-{{2-chloro-5-[3,6-dihydro-3-methyl-2,6-dioxo-4-(trifluoromethyl)-1(2H)-pyrimidinyl]-4-fluorophenyl}imino}-5-(hydroxyethyl)-4-oxo-3-thiazolidineacetate]",,,,9.0,9.0,9.0,9.0,9.0,2.0,4.0,6.0,7.0,9.0,9.0,9.0,9.0,,,,,Postemergence herbicidal rating TRZAWR ([1]; Rate 0.0313 kg/ha): 4.5; Postemergence herbicidal rating TRZAWR ([1]; Rate 0.0625 kg/ha): 4.5; Postemergence herbicidal rating TRZAWR ([1]; rate 0.0156 kg/ha): 4.0; Postemergence herbicidal rating AMBEL ([5]; Rate 0.0313 kg/ha): 9.0; Postemergence herbicidal rating AMBEL ([5]; Rate 0.0625 kg/ha): 9.0; Postemergence herbicidal rating AMBEL ([5]; rate 0.0156 kg/ha): 9.0; Postemergence herbicidal rating GALAP ([6]; Rate 0.0313 kg/ha): 4.0; Postemergence herbicidal rating GALAP ([6]; Rate 0.0625 kg/ha): 4.0; Postemergence herbicidal rating GALAP ([6]; rate 0.0156 kg/ha): 2.0
"CCOC(=O)CN1C(=O)C(CC(=O)OC)S/C1=N/c1cc(-n2c(=O)cc(C(F)(F)F)n(C)c2=O)c(F)cc1Cl (centres unmarked) [Compound 54, 2-{{2-Chloro-5-[3,6-dihydro-3-methyl-2,6-dioxo-4-(trifluoromethyl)-1(2H)-pyrimidinyl]-4-fluorophenyl}imino}-4-oxo-3,5-thiazolidinediacetic acid, 3-ethyl methyl ester]",5.0,7.0,9.0,4.5,9.0,9.0,9.0,9.0,0.0,0.0,0.0,2.0,0.0,0.0,6.0,6.0,9.0,9.0,9.0,6.0,Preemergence herbicidal rating CHEAL ([2]; rate 0.5000 kg/ha): 9.0; Postemergence herbicidal rating GALAP ([6]; Rate 0.0315 kg/ha): 9.0; Postemergence herbicidal rating GALAP ([6]; Rate 0.0630 kg/ha): 9.0
"C=CCN1C(=O)C(CC(=O)OC)SC1=Nc1cc(-n2c(=O)cc(C(F)(F)F)n(C)c2=O)c(F)cc1Cl (centres unmarked) [Compound 64, Methyl 3-allyl-2-{{2-chloro-5-[3,6-dihydro-3-methyl-2,6-dioxo-4-(trifluoromethyl)-1(2H)-pyrimidinyl]-4-fluorophenyl}imino}-4-oxo-5-thiazolidineacetate]",6.0,6.0,7.0,9.0,9.0,9.0,9.0,9.0,,,,,,,,,9.0,9.0,9.0,5.0,"Herbicidal rating SAGPY [3, 12]: 0.0; Herbicidal rating SAGPY [3, 13]: 3.0; Herbicidal rating SAGPY [3, 14]: 5.0; Herbicidal rating SAGPY [3, 15]: 8.0; Herbicidal rating MOOVA [4, 12]: 7.0; Herbicidal rating MOOVA [4, 13]: 9.0; Herbicidal rating MOOVA [4, 14]: 9.0; Herbicidal rating MOOVA [4, 15]: 9.0; Postemergence herbicidal rating GALAP ([6]; Rate 0.0315 kg/ha): 7.0; Postemergence herbicidal rating GALAP ([6]; Rate 0.0630 kg/ha): 7.0"
"C=CCOC(=O)CC1SC(=Nc2cc(-n3c(=O)cc(C(F)(F)F)n(C)c3=O)c(F)cc2Cl)N(CC=C)C1=O (centres unmarked) [Compound 65, Allyl 3-allyl-2-{(2-chloro-5-[3,6-dihydro-3-methyl-2,6-dioxo-4-(trifluoromethyl)-1(2H)-pyrimidinyl]-4-fluorophenyl}imino}-4-oxo-5-thiazolidineacetate]",,,,9.0,9.0,9.0,9.0,9.0,,,,,,,,,,,,,"TRZAWR herbicidal rating ([1]; rate 0.0158 kg/ha): 4.0; TRZAWR herbicidal rating ([1]; rate 0.0315 kg/ha): 7.0; TRZAWR herbicidal rating ([1]; rate 0.0630 kg/ha): 7.0; Herbicidal rating SAGPY [3, 12]: 2.0; Herbicidal rating SAGPY [3, 13]: 4.0; Herbicidal rating SAGPY [3, 14]: 5.0; Herbicidal rating SAGPY [3, 15]: 7.0; Herbicidal rating MOOVA [4, 12]: 9.0; Herbicidal rating MOOVA [4, 13]: 9.0; Herbicidal rating MOOVA [4, 14]: 9.0; Herbicidal rating MOOVA [4, 15]: 9.0; AMBEL herbicidal rating ([5]; rate 0.0158 kg/ha): 9.0; AMBEL herbicidal rating ([5]; rate 0.0315 kg/ha): 7.0; AMBEL herbicidal rating ([5]; rate 0.0630 kg/ha): 9.0; GALAP herbicidal rating ([6]; rate 0.0158 kg/ha): 2.0; GALAP herbicidal rating ([6]; rate 0.0315 kg/ha): 5.0; GALAP herbicidal rating ([6]; rate 0.0630 kg/ha): 9.0"
